# Tests used:
# [1] = set-up: species or system Sprague Dawley rats; conditions: male, Sprague Dawley, rat, in vivo, po, 100 mg/kg
# Protocol: This example allows for comparison of the pharmacokinetics of the BH4 derivative versus that of BH4 following single oral administration in rats.
# Single doses of BH4 (10 and 100 mg/kg) were administered orally to a […] of male Sprague Dawley rats (6 weeks old) under fasting conditions. Single doses of Compound I were administered orally to a […] of male Sprague Dawley rats (6 weeks old) under fasting conditions.
# With respect to the administered BH4, the maximum total biopterin concentrations in plasma 2 hrs and 1 hr post-dosing were 108 ng/ml (i.e., about 3 fold the endogenous level) and 1227 ng/ml (i.e., about 30 fold the endogenous level), respectively. […] The ratio of reduced biopterin to total biopterins in plasma (i.e., the reduced-form ratio) was relatively static (73%-96%).
# [2] = set-up: species or system cynomolgus monkeys; conditions: female, cynomolgus monkey, in vivo, po, 10 mg/kg
# Protocol: The example allows comparison of the pharmacokinetics of sapropterin and the BH4 derivative after a single oral administration in groups of cynomolgus monkeys.
# A single dose of sapropterin (10 mg/kg) was administered orally to a first group of female cynomolgus monkeys (3/group) under fasting conditions. A single dose of Compound I (10 mg/kg) was administered orally to second group of female cynomolgus monkeys (3/group) under fasting conditions.
# The bioavailability (F) following a 10 mg/kg oral administration to female monkeys was about 9%.
Structure (SMILES),biopterin elimination half-life (t1/2) [1],bioavailability (F) [2],plasma elimination half-life of biopterin [2]
"C[C@H](O)[C@H](O)[C@H]1CNc2nc(N)[nH]c(=O)c2N1 [BH4, (6R)-5,6,7,8-tetrahydro-L-biopterin]",about 1.1 hr,–,–
C[C@H](O)[C@H](O)[C@H]1CNc2nc(N)[nH]c(=O)c2N1 [sapropterin],–,about 9%,approximately 1.4 hrs

# Reference: patent US20100009997A1, “METHOD OF TREATING A METABOLIC OR NEUROPSYCHIARTY DISORDER WITH A BH4 DERIVATIVE PRODRUG” (BIOMARIN PHARMACEUTICAL INC., priority 2007, published 2010)
